The series can be described thus: Solubility measurement (compound dissolved in solvent, left 1 day, precipitate checked by Tyndall effect). Type of series: physicochemical. The conditions noted are these: dissolved in a solvent, left to stand for 1 day, laser / Tyndall effect. As to the method: In the present specification, the “solubility” means a property in which a solute is dissolved in a specific solvent, and may be denoted as a g value of the solute that may be dissolved in 100 g of the solvent at a predetermined temperature.
The method of measuring the solubility is as follows. First, after a compound was dissolved in a solvent, the resulting solution was left to stand for 1 day. Thereafter, by passing a laser through the solution, it was observed whether a precipitate was formed through the Tyndall effect, and the solubility was measured.

Among the data in patent US11557737B2, “Compound, coating composition comprising same, organic light-emitting element using same, and manufacturing method therefor” (LG Chem, Ltd., priority 2018, dated 2023) are Solubility values, retold here.

The compound `C[Si](C)(C)c1ccc(-c2ccc(N(c3ccc4ccc5c(N(c6ccc(-c7ccc([Si](C)(C)C)cc7)cc6)c6cccc7c6oc6ccccc67)ccc6ccc3c4c65)c3cccc4c3oc3ccccc34)cc2)cc1` [Compound D] displayed a Solubility of 0.05 wt %. `c1ccc([Si](c2ccccc2)(c2ccccc2)c2ccc(-c3ccc(N(c4ccc(-c5cccc6c5oc5ccccc56)cc4)c4cc5ccc6cccc7ccc(c4)c5c67)cc3)cc2)cc1` [Compound E] gave a Solubility of 2 wt %.

`C[Si](C)(C)c1ccc(N(c2ccccc2)c2ccc3ccc4c(N(c5ccccc5)c5ccc([Si](C)(C)C)cc5)ccc5ccc2c3c54)cc1` [Compound C] came in with a Solubility of 0.1 wt %. The result for `c1ccc([Si](c2ccccc2)(c2ccccc2)c2ccc(-c3ccc(N(c4ccc(-c5ccc6c(c5)oc5ccccc56)cc4)c4cc5ccc6cccc7ccc(c4)c5c67)cc3)cc2)cc1` [Compound F] reads 2 wt %.
